System: HaCaT cells
Experiment: Concentrations of inflammatory mediators produced by HaCaT cells stimulated with TNFα and IFNγ in presence/absence of JAK inhibitors (ProCarta)
Format: cell-based, human
Conditions: TNFα 25 ng/mL + IFNγ 25 ng/mL
Method: After 48 hours, cell culture media was removed from 24 well plates and replaced with 250 uL of media containing serial diluted drug, then incubated for 15 minutes at 37° C./5% CO2. […] The final concentration of Recombinant Human Interferon gamma and Recombinant Human Tumor Necrosis Factor alpha was 25 ng/mL of each cytokine. Cytokine stimulation added to wells containing drug brought the final concentrations for each drug treatment to 25 nM, 50 nM, 100 nM, and 200 nM. Treated plates were mixed by gentle agitation for 30 seconds then incubated for 24 hours at 37° C./5% CO2. At the end of the 24 hour incubation media was immediately removed from each plate.
Media was incubated with antibody conjugated beads designed to bind to the epitopes of specific target proteins and identify the bound protein through the bead's distinctive spectral pattern. Biotinylated detection antibodies, designed to bind to different epitopes of the same target proteins, and Streptavidin-PE are added to assay plates to quantify the amount of the target proteins. Assay plates were read on the Luminex 200 and data were expressed as Net Median Fluorescence Intensity. […] The concentration of each protein was extrapolated from the antigen standard curve and concentrations were expressed as pg/mL (Table 15).

N#CCC1(n2cc(-c3ncnc4[nH]ccc34)cn2)CN(C2CCN(C(=O)c3ccnc(C(F)(F)F)c3F)CC2)C1 [Cpc B]
BDNF concentration (drug 25 nM): 4.05 ± 0.19 pg/mL
EGF concentration (drug 25 nM): 1.76 ± 0.17 pg/mL
Eotaxin concentration (drug 25 nM): 10.22 ± 0.15 pg/mL
FGF-2 concentration (drug 25 nM): 20.63 ± 1.49 pg/mL
GM-CSF concentration (drug 25 nM): 130.13 ± 2.13 pg/mL
GRO alpha concentration (drug 25 nM): 547.38 ± 31.41 pg/mL
HGF concentration (drug 25 nM): 14.15 ± 0.3 pg/mL
IFN alpha concentration (drug 25 nM): 0.24 ± 0.02 pg/mL
IFN gamma concentration (drug 25 nM): 35023.68 ± 10759.49 pg/mL
IL1RA concentration (drug 25 nM): 5944.59 ± 264.97 pg/mL
IL1 alpha concentration (drug 25 nM): 7.34 ± 0.31 pg/mL
IL1 beta concentration (drug 25 nM): 9.53 ± 0.3 pg/mL
IL2 concentration (drug 25 nM): 33.62 ± 1.88 pg/mL
IL4 concentration (drug 25 nM): 6.74 ± 1.65 pg/mL
IL5 concentration (drug 25 nM): 27.31 ± 1.32 pg/mL
IL6 concentration (drug 25 nM): 749.64 ± 32.94 pg/mL
IL7 concentration (drug 25 nM): 2.14 ± 0.12 pg/mL
IL8 concentration (drug 25 nM): 2837.03 ± 135.03 pg/mL
IL9 concentration (drug 25 nM): 4.55 ± 0.85 pg/mL
IL10 concentration (drug 25 nM): 0.87 ± 0.06 pg/mL
IL12p70 concentration (drug 25 nM): 2.01 ± 0.21 pg/mL
IL13 concentration (drug 25 nM): 2.79 ± 0.33 pg/mL
IL15 concentration (drug 25 nM): 3.3 ± 0.93 pg/mL
IL17A concentration (drug 25 nM): 4.6 ± 0.5 pg/mL
IL18 concentration (drug 25 nM): 162.16 ± 4.98 pg/mL
IL21 concentration (drug 25 nM): 2.66 ± 0.22 pg/mL
IL22 concentration (drug 25 nM): 8.69 ± 0.42 pg/mL
IL23 concentration (drug 25 nM): 7.28 ± 0.16 pg/mL
IL27 concentration (drug 25 nM): 8.03 ± 1.71 pg/mL
IL31 concentration (drug 25 nM): 3.6 ± 0.28 pg/mL
IP-10/CXCL10 concentration (drug 25 nM): 4068.98 ± 507.12 pg/mL
LIF concentration (drug 25 nM): 68.82 ± 2.51 pg/mL
MCP1 concentration (drug 25 nM): 29762.04 ± 13226.23 pg/mL
MIP1 alpha concentration (drug 25 nM): 103.81 ± 3.29 pg/mL
MIP1 beta concentration (drug 25 nM): 319.77 ± 6.92 pg/mL
PDGF-BB concentration (drug 25 nM): 5.19 ± 0.15 pg/mL
PIGF-1 concentration (drug 25 nM): 56.69 ± 2.37 pg/mL
RANTES concentration (drug 25 nM): 203.77 ± 12.55 pg/mL
SCF concentration (drug 25 nM): 4.33 ± 0.18 pg/mL
SDF-1 alpha concentration (drug 25 nM): 3430.87 ± 111.52 pg/mL
TNF alpha concentration (drug 25 nM): 10574.99 ± 753.02 pg/mL
TNF beta concentration (drug 25 nM): 4.91 ± 0.79 pg/mL
VEGF-A concentration (drug 25 nM): 1249.75 ± 44.89 pg/mL
VEGF-D concentration (drug 25 nM): 9.22 ± 0.87 pg/mL
bNGF concentration (drug 25 nM): 7.7 ± 0.55 pg/mL
BDNF concentration (drug 50 nM): 4.04 ± 0.24 pg/mL
EGF concentration (drug 50 nM): 1.67 ± 0.15 pg/mL
Eotaxin concentration (drug 50 nM): 9.92 ± 0.2 pg/mL
FGF-2 concentration (drug 50 nM): 19.94 ± 1.49 pg/mL
GM-CSF concentration (drug 50 nM): 128.05 ± 2.9 pg/mL
GRO alpha concentration (drug 50 nM): 544.63 ± 38.3 pg/mL
HGF concentration (drug 50 nM): 13.65 ± 0.53 pg/mL
IFN alpha concentration (drug 50 nM): 0.26 ± 0 pg/mL
IFN gamma concentration (drug 50 nM): 28977.92 ± 7400.61 pg/mL
IL1RA concentration (drug 50 nM): 5840.44 ± 314.35 pg/mL
IL1 alpha concentration (drug 50 nM): 7.06 ± 0.37 pg/mL
IL1 beta concentration (drug 50 nM): 8.96 ± 0.43 pg/mL
IL2 concentration (drug 50 nM): 31.96 ± 1.47 pg/mL
IL4 concentration (drug 50 nM): 5.74 ± 1.1 pg/mL
IL5 concentration (drug 50 nM): 25.5 ± 1.65 pg/mL
IL6 concentration (drug 50 nM): 674.21 ± 27.15 pg/mL
IL7 concentration (drug 50 nM): 1.9 ± 0.12 pg/mL
IL8 concentration (drug 50 nM): 2862.21 ± 240.57 pg/mL
IL9 concentration (drug 50 nM): 4.13 ± 0.43 pg/mL
IL10 concentration (drug 50 nM): 0.85 ± 0.05 pg/mL
IL12p70 concentration (drug 50 nM): 1.68 ± 0.21 pg/mL
IL13 concentration (drug 50 nM): 2.73 ± 0.23 pg/mL
IL15 concentration (drug 50 nM): 2.71 ± 0.65 pg/mL
IL17A concentration (drug 50 nM): 4.09 ± 0.43 pg/mL
IL18 concentration (drug 50 nM): 153.4 ± 3.46 pg/mL
IL21 concentration (drug 50 nM): 2.45 ± 0.29 pg/mL
IL22 concentration (drug 50 nM): 8.9 ± 0^ pg/mL
IL23 concentration (drug 50 nM): 7.43 ± 0 pg/mL
IL27 concentration (drug 50 nM): 6.95 ± 0.83 pg/mL
IL31 concentration (drug 50 nM): 3.22 ± 0.38 pg/mL
IP-10/CXCL10 concentration (drug 50 nM): 3872.74 ± 295.01 pg/mL
LIF concentration (drug 50 nM): 67.89 ± 3.08 pg/mL
MCP1 concentration (drug 50 nM): 27471.13 ± 12271.13 pg/mL
MIP1 alpha concentration (drug 50 nM): 100.64 ± 4.66 pg/mL
MIP1 beta concentration (drug 50 nM): 318.84 ± 8.17 pg/mL
PDGF-BB concentration (drug 50 nM): 5.28 ± 0.18 pg/mL
PIGF-1 concentration (drug 50 nM): 53.92 ± 2.81 pg/mL
RANTES concentration (drug 50 nM): 198.35 ± 15.1 pg/mL
SCF concentration (drug 50 nM): 4.16 ± 0.18 pg/mL
SDF-1 alpha concentration (drug 50 nM): 3356.32 ± 136.22 pg/mL
TNF alpha concentration (drug 50 nM): 11776.9 ± 1658.47 pg/mL
TNF beta concentration (drug 50 nM): 4.13 ± 0.5 pg/mL
VEGF-A concentration (drug 50 nM): 1242.76 ± 50.39 pg/mL
VEGF-D concentration (drug 50 nM): 9.72 ± 0.75 pg/mL
bNGF concentration (drug 50 nM): 7.09 ± 0.71 pg/mL
BDNF concentration (drug 100 nM): 4.06 ± 0.26 pg/mL
EGF concentration (drug 100 nM): 1.56 ± 0.2 pg/mL
Eotaxin concentration (drug 100 nM): 10.09 ± 0.19 pg/mL
FGF-2 concentration (drug 100 nM): 20.42 ± 1.5 pg/mL
GM-CSF concentration (drug 100 nM): 133.06 ± 4.24 pg/mL
GRO alpha concentration (drug 100 nM): 568.49 ± 35.18 pg/mL
HGF concentration (drug 100 nM): 14.41 ± 0.55 pg/mL
IFN alpha concentration (drug 100 nM): 0.26 ± 0 pg/mL
IFN gamma concentration (drug 100 nM): 29276.66 ± 7697.74 pg/mL
IL1RA concentration (drug 100 nM): 5953.24 ± 309.78 pg/mL
IL1 alpha concentration (drug 100 nM): 7 ± 0.41 pg/mL
IL1 beta concentration (drug 100 nM): 8.66 ± 0.41 pg/mL
IL2 concentration (drug 100 nM): 31.33 ± 1.43 pg/mL
IL4 concentration (drug 100 nM): 5.78 ± 0.72 pg/mL
IL5 concentration (drug 100 nM): 26.52 ± 1.54 pg/mL
IL6 concentration (drug 100 nM): 643.8 ± 27.14 pg/mL
IL7 concentration (drug 100 nM): 2.12 ± 0.14 pg/mL
IL8 concentration (drug 100 nM): 2980.9 ± 173.36 pg/mL
IL9 concentration (drug 100 nM): 4.13 ± 0.43 pg/mL
IL10 concentration (drug 100 nM): 0.88 ± 0.06 pg/mL
IL12p70 concentration (drug 100 nM): 1.77 ± 0.18 pg/mL
IL13 concentration (drug 100 nM): 2.55 ± 0.33 pg/mL

Source: patent US12498382B2, “Biomarkers for vitiligo” (INCYTE CORPORATION, priority 2019, dated 2025)
